In PubChem BioAssay (NCI) one finds GI50 and TGI data, which are given here for 11 compounds.

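Protocol summary: plate cells (96-well), add compound at 5 concentrations, incubate 48 h, interpolate endpoints linearly. GI50 is the concentration that inhibits growth by half. TGI is the concentration that stops growth completely.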

Test systems include MOLT-4 leukemia; OVCAR-4 ovarian; LOX IMVI melanoma; TK-10 renal; SK-MEL-2 melanoma; SF-295 CNS; MALME-3M melanoma; HS 578T breast; SF-268 CNS; HOP-92 NSCLC.
Assay in all cases: growth of human tumour cells (NCI), 48 h

For `CCOC(=O)CC1C(CNC(=O)NC)OC(n2cnc3c(NC(=O)Nc4ccccc4)ncnc32)C1O[Si](C)(C)C(C)(C)C` (stereo not drawn), the GI50 in the test with MOLT-4 leukemia was 2.39 µM; in the test on OVCAR-4 ovarian it was 12.3 µM; in the test on LOX IMVI melanoma it was 5.46 µM; in the test on TK-10 renal, 12.4 µM; with SK-MEL-2 melanoma, 5.42 µM; with SF-295 CNS, 5.73 µM. Besides, the results for the GI50 with MALME-3M melanoma, in the test with HS 578T breast and with SF-268 CNS were 10.3 µM, 3.6 µM and 6.53 µM, respectively. The TGI was 23.3 µM in the test on MOLT-4 leukemia; > 100 µM in the test on OVCAR-4 ovarian; > 100 µM with LOX IMVI melanoma; 40.5 µM in the test on TK-10 renal; 33.1 µM with SK-MEL-2 melanoma; > 100 µM with SF-295 CNS. For the same compound, the results for the TGI in the test with MALME-3M melanoma, in the test with HS 578T breast and in the test with SF-268 CNS were > 100 µM, 53.6 µM and 27 µM, respectively.

Take `CCN(CC)CCOc1ccccc1-n1c(C)ccc1-c1ccccc1`: the GI50 with MOLT-4 leukemia was 13.9 µM; in the test with OVCAR-4 ovarian it was 12.2 µM; with HOP-92 NSCLC, 12.6 µM; in the test with LOX IMVI melanoma, 17.5 µM; with TK-10 renal, 14.5 µM; in the test with SF-295 CNS it was 16.3 µM. In addition, the GI50 in the test on MALME-3M melanoma is 19.2 µM; with HS 578T breast it was 12.8 µM; with SF-268 CNS, 15.6 µM. Further, the TGI came to 33.3 µM in the test with MOLT-4 leukemia; 25.7 µM in the test with OVCAR-4 ovarian; 32.8 µM in the test with HOP-92 NSCLC; 34.5 µM in the test on LOX IMVI melanoma; 29.2 µM with TK-10 renal; 34.2 µM in the test on SF-295 CNS. The TGI was 36.6 µM with MALME-3M melanoma, 35.9 µM in the test with HS 578T breast and 30.6 µM in the test with SF-268 CNS.

As to `COc1ccc(-c2cncn2-c2ccc(-c3nc4cc(OC)c(OC)c(OC)c4s3)cc2)cc1N`, the GI50 is 4 µM in the test on MOLT-4 leukemia; 6.29 µM in the test with OVCAR-4 ovarian; 4.75 µM in the test with LOX IMVI melanoma; 4.16 µM with TK-10 renal; 6.04 µM with SK-MEL-2 melanoma; 4.44 µM in the test on SF-295 CNS. Also, the GI50 in the test on MALME-3M melanoma is 2.48 µM; in the test on HS 578T breast it was 28.3 µM; in the test on SF-268 CNS, 47 µM. The TGI in the test on MOLT-4 leukemia, with OVCAR-4 ovarian, in the test on LOX IMVI melanoma, in the test on TK-10 renal, in the test on SK-MEL-2 melanoma and in the test on SF-295 CNS was > 100 µM in each case. The TGI in the test on MALME-3M melanoma was 9.97 µM; with HS 578T breast, > 100 µM; with SF-268 CNS, > 100 µM.

For `N#Cc1cc2c(=S)[nH]c(=S)[nH]c2nc1SCc1ccccc1`, the GI50 in the test on MOLT-4 leukemia is 43.3 µM; with OVCAR-4 ovarian it was 39.2 µM; with HOP-92 NSCLC, 30.1 µM; with LOX IMVI melanoma, 17.3 µM; with TK-10 renal, 12.3 µM; in the test with SK-MEL-2 melanoma, 66.7 µM. Further, the GI50 with SF-295 CNS is 46.8 µM; with HS 578T breast, 39.6 µM; with SF-268 CNS, 30.6 µM. For the same compound, the TGI was > 100 µM in the test with MOLT-4 leukemia; > 100 µM in the test with OVCAR-4 ovarian; > 100 µM with HOP-92 NSCLC; 43.4 µM with LOX IMVI melanoma; 65 µM in the test with TK-10 renal; > 100 µM in the test with SK-MEL-2 melanoma. Further, the TGI with SF-295 CNS, in the test on HS 578T breast and with SF-268 CNS was > 100 µM in each case.

On to `Cc1cccc(/C=N/N=C(\N)NO)n1`, for which the TGI was > 100 µM in the test with MOLT-4 leukemia; > 100 µM in the test with OVCAR-4 ovarian; 98.3 µM with HOP-92 NSCLC; 52.8 µM in the test on LOX IMVI melanoma; > 100 µM with TK-10 renal; > 100 µM in the test on SK-MEL-2 melanoma. In addition, the TGI in the test with SF-295 CNS, in the test on MALME-3M melanoma and in the test with SF-268 CNS was > 100 µM each time.

With `Nc1ncc(-c2ccc3ncnc(N4CCc5cc(F)c(Cl)cc54)c3c2)cc1C(F)(F)F`, the GI50 was 2.13 µM with MOLT-4 leukemia; 1.74 µM with OVCAR-4 ovarian; 2.84 µM in the test with SK-MEL-2 melanoma; 2.03 µM in the test with SF-295 CNS; 1.44 µM with MALME-3M melanoma; 0.298 µM in the test with HS 578T breast. Also, the GI50 in the test on SF-268 CNS was 1.24 µM. Besides, the TGI in the test on MOLT-4 leukemia is > 100 µM; in the test on OVCAR-4 ovarian, 27.9 µM; in the test on SK-MEL-2 melanoma, > 100 µM; in the test on SF-295 CNS it was > 100 µM; in the test on MALME-3M melanoma, > 100 µM; with HS 578T breast it was 2.54 µM. In the test with SF-268 CNS, the TGI is > 100 µM.

As for `Fc1cccc(-c2nc(-c3c[nH]c4ncccc34)cs2)c1`, the GI50 with MOLT-4 leukemia was > 100 µM; with HOP-92 NSCLC, 0.128 µM; in the test with LOX IMVI melanoma, > 100 µM; in the test on TK-10 renal, 25.9 µM; in the test on SK-MEL-2 melanoma, > 100 µM; in the test on SF-295 CNS, 36.8 µM. The GI50 in the test on MALME-3M melanoma was 5.62 µM; with HS 578T breast, 2.95 µM; in the test on SF-268 CNS, 38.2 µM. In addition, the TGI in the test on MOLT-4 leukemia was > 100 µM; in the test on HOP-92 NSCLC, 18.6 µM; in the test with LOX IMVI melanoma it was > 100 µM; in the test with TK-10 renal it was > 100 µM; in the test with SK-MEL-2 melanoma it was > 100 µM; with SF-295 CNS it was > 100 µM. In addition, the TGI in the test with MALME-3M melanoma is > 100 µM; with HS 578T breast, 16.7 µM; with SF-268 CNS, > 100 µM.

In the case of `CC(NNC(=S)N1CCN(c2ccccn2)CC1)c1cccc[n+]1[O-]` (stereo not drawn), the TGI in the test with MOLT-4 leukemia is > 100 µM; in the test with OVCAR-4 ovarian, > 100 µM; with HOP-92 NSCLC, > 100 µM; in the test with LOX IMVI melanoma, 39.1 µM; in the test on TK-10 renal, > 100 µM; in the test with SF-295 CNS, > 100 µM. The TGI in the test on HS 578T breast and in the test with SF-268 CNS was > 100 µM each time.

`O=C(Cc1ccccc1)N/N=C(/c1nc2ccc([N+](=O)[O-])cc2[nH]c1=O)C(O)c1ccco1` (stereo not drawn): the TGI with MOLT-4 leukemia, in the test with OVCAR-4 ovarian, in the test with HOP-92 NSCLC, in the test on LOX IMVI melanoma, in the test with TK-10 renal and in the test with SK-MEL-2 melanoma was > 100 µM each time. The TGI in the test with SF-295 CNS, with MALME-3M melanoma and in the test with SF-268 CNS was > 100 µM each time.

Take `CSc1ccc(NC(=O)CCl)cc1`: the TGI in the test with MOLT-4 leukemia is > 10 µM; in the test on OVCAR-4 ovarian it was > 10 µM; in the test on HOP-92 NSCLC, 8.88 µM; in the test with LOX IMVI melanoma, > 10 µM; in the test with TK-10 renal it was > 10 µM; with SK-MEL-2 melanoma, 5.1 µM. Further, the TGI in the test with SF-295 CNS is 5.1 µM; in the test with HS 578T breast, > 10 µM; in the test on SF-268 CNS, > 10 µM.

In the case of `O=C(O)c1ccccc1C(=O)Nc1cc2c(cc1Br)-c1ccccc1C2=O`, the TGI with MOLT-4 leukemia, in the test with OVCAR-4 ovarian, in the test on HOP-92 NSCLC, in the test on LOX IMVI melanoma, with TK-10 renal and in the test with SK-MEL-2 melanoma was > 100 µM in each case. The TGI in the test on MALME-3M melanoma, with HS 578T breast and in the test on SF-268 CNS was > 100 µM in each case.
